Measured values taken from PubChem BioAssay AID463199 (Broad Institute, 2010).
Active and inactive are the calls of the source.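 The calls were made as follows: active = AC50, the dose giving half-maximal effect, exceeds a fixed cutoff for a compound that rescues yeast growth under heat; inactive = the rest, inconclusive results apart.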

The compounds below were run on S. cerevisiae Burl-1 ts mutant growth, BacTiter-Glo, 38.5C 24 h (assay: growth induction of Burl-1 ts yeast mutant, dose response, counter-screen for SUMOylation pathway inhibitor project, whole organism, S. cerevisiae, luminescence (AID 463199)).

SMILES	AC50
COc1ccc2nc(NC(=O)c3cc(S(=O)(=O)N4CCOCC4)ccc3C)sc2c1	> 42 µM (inactive)
CN(Cc1cccnc1)Cc1cn[nH]c1-c1ccc(-c2ccccc2)cc1	> 42 µM (inactive)
CN(C)S(=O)(=O)c1cccc(NC(=O)C(c2ccccc2)c2ccccc2)c1	> 42 µM (inactive)
FC(F)(F)c1nnc(-c2ccccc2)nc1Oc1ccc(Cl)cc1Cl	> 42 µM (inactive)
CN(C)c1ccnc2sc3c(NCC(O)CO)ncnc3c12 (configuration not stated)	> 42 µM (inactive)
CSc1ncc2ncn(C3OC(CO)C(O)C3O)c2n1 (configuration not stated)	> 42 µM (inactive)
COc1cc2c(cc1OC)CN(C(=O)Cc1c(F)cccc1Cl)CC2	> 42 µM (inactive)
Cc1ccc(NC(=O)Cn2c(CCC(=O)O)ccc2-c2cccs2)cc1	> 42 µM (inactive)
COc1ccc(CCNC(=O)Cn2nnc(-c3ccc(N4CCOCC4)cc3)n2)cc1OC	> 42 µM (inactive)
OC[C@@H](O)CCl	> 42 µM (inactive)
O=C(Nc1cccc(Cl)c1)OCc1cncs1	> 42 µM (inactive)
O=C(CCc1ccccc1)NNC(=S)Nc1ccc(F)cc1	> 42 µM (inactive)
CCc1cc2c(=O)c(-c3ccc(F)cc3)c(C(F)(F)F)oc2cc1OCC(=O)O	> 42 µM (inactive)
CSCC[C@H](NC(=O)CC(C)(C)C)c1nc2ccccc2[nH]1	> 42 µM (inactive)
Cc1ccc(CC(=O)O/N=C(\N)c2cccc([N+](=O)[O-])c2)cc1	> 42 µM (inactive)
COc1ccccc1N1CCN(C(=O)C(=O)N/N=C/c2ccccc2F)CC1	> 42 µM (inactive)
O=C(CCSc1nnc(-c2ccncc2)o1)Nc1ccc(Cl)cc1	> 42 µM (inactive)
COCCn1c(SCc2ccc(Cl)cc2)nc2c1c(=O)[nH]c(=O)n2C	> 42 µM (inactive)
Oc1cccc2ccc(/C=C/c3ccccc3Br)nc12	> 42 µM (inactive)
O=C(O)c1cccc(NC(=O)c2cccc(S(=O)(=O)Nc3cccc([N+](=O)[O-])c3)c2)c1	> 42 µM (inactive)
CC(=O)Nc1ccc(S(=O)(=O)Nc2ccc(S(=O)(=O)Nc3ncccn3)cc2)cc1	> 42 µM (inactive)
COCC(=O)n1nc(-c2ccccc2)nc1NCc1ccc(N(C)C)cc1	> 42 µM (inactive)
Cc1ccc(NC(=S)NC(NC(=O)c2ccccc2C)C(Cl)(Cl)Cl)c(C)c1 (configuration not stated)	> 42 µM (inactive)
Nc1cc(C(=O)OCC(=O)N2CCOCC2)ccc1Cl	> 42 µM (inactive)

SMILES	AC50
CN/C(=C/[N+](=O)[O-])NCCSCc1ccc(CN(C)C)o1	> 42 µM (inactive)
CC(C)COc1ccc(C(=O)Nc2ccc([N+](=O)[O-])cc2)cc1	> 42 µM (inactive)
CCN(CC)c1nc2c(c(=O)[nH]c(=O)n2C)n1CCOc1ccccc1	> 42 µM (inactive)
CCc1ccccc1NC1c2ccccc2C(=O)N1c1cccnc1 (configuration not stated)	> 42 µM (inactive)
O=C(NC1CCc2ccccc21)c1cc(COc2ccc(F)cc2F)on1 (configuration not stated)	> 42 µM (inactive)
CCC(C)NCCOc1ccccc1C (configuration not stated)	> 42 µM (inactive)
O=C(N/N=C/C(Br)=C/c1ccccc1)c1cccnc1	> 42 µM (inactive)
CCCN1CCN(CCCNC(=O)CCn2nc(-c3ccccc3)ccc2=O)CC1	> 42 µM (inactive)
Cc1ccc(C)n1-c1ccc(N(C)C)cc1	> 42 µM (inactive)
CC(C)c1ccc2c(c1)CCC1C(C)(CN)CCCC21C (configuration not stated)	> 42 µM (inactive)
CCOC(=O)c1cc([N+](=O)[O-])c([N+](=O)[O-])cc1NC(C)=O	> 42 µM (inactive)
Cc1ccc(NC(=O)Cn2nnc(C(=O)NCc3ccc4c(c3)OCO4)c2N)cc1	> 42 µM (inactive)
CCCCOCCCNS(=O)(=O)Cc1ccccc1	> 42 µM (inactive)
CC(C)NC(=O)c1ccccc1-c1ccccc1	> 42 µM (inactive)
Cn1c(CN2CCOCC2)nnc1SCC(=O)Nc1cc(Cl)ccc1Cl	> 42 µM (inactive)
Fc1cccc(Cl)c1CSc1nnc(CN2CCOCC2)n1-c1ccccc1	> 42 µM (inactive)
CC1(OC(=O)CCc2ccccc2)C(=O)C=C2C=C(c3ccc(C#N)cc3)N(C3CCCC3)C=C2C1=O (configuration not stated)	> 42 µM (inactive)
COc1ccccc1CC(=O)N1CCN(S(=O)(=O)c2ccccc2)CC1	> 42 µM (inactive)
O=C1CC(c2c[nH]c3ccccc23)C(=O)N1c1ccccc1 (configuration not stated)	> 42 µM (inactive)
CCOC(=O)CN1NC2(CCC(C(C)(C)C)CC2)NC1=S (configuration not stated)	> 42 µM (inactive)
COc1ccc(C(=O)N/C(=C\c2cn(C)c3ccccc23)C(=O)OCCN(C)C)cc1	> 42 µM (inactive)
COc1ccc(CNC(=O)c2cc(=O)c3cc(C)cc(C)c3o2)cc1	> 42 µM (inactive)
CC(=O)Nc1ccc(S(=O)(=O)Nc2cccc(-c3ccc4nncn4n3)c2)cc1	> 42 µM (inactive)
CC(=O)c1cccc(NC(=O)CNC(=O)c2sc3ccccc3c2Cl)c1	> 42 µM (inactive)

SMILES	AC50
CCC(C)N1C(=O)CN(C2CCCCCC2)C(=O)C1c1ccccc1F (configuration not stated)	> 42 µM (inactive)
O=C(COC(=O)c1ccc([N+](=O)[O-])o1)Nc1ncc(Cl)cc1Cl	> 42 µM (inactive)
COc1ccc(CN(C)C(=O)c2sccc2-c2ccccc2)c(OC)c1	> 42 µM (inactive)
COC(=O)c1ccc(Cl)c(NC(=O)CN(c2ccc(OC)c(OC)c2)S(C)(=O)=O)c1	> 42 µM (inactive)
COc1ccc(C)cc1NC(=O)Cn1c(=O)oc2ccccc21	> 42 µM (inactive)
COC(=O)/C=C\C(=O)Nc1cccc([N+](=O)[O-])c1	> 42 µM (inactive)
CCn1c(SCc2nc3ccccc3s2)nnc1-c1ccccc1	> 42 µM (inactive)
O=C(N/N=C\c1cn(-c2ccccc2)nc1-c1ccccc1)c1ccc(Br)o1	> 42 µM (inactive)
COc1ccccc1CNC(=O)CN(c1ccc(C)cc1)S(=O)(=O)c1c(C)n[nH]c1C	> 42 µM (inactive)
COC(=O)C1CN(C#N)N(c2ccc(Cl)cc2)C12c1ccccc1-c1ccccc12 (configuration not stated)	> 42 µM (inactive)
CCCCN(C/C=C/c1ccccc1OC)Cc1ccccc1	> 42 µM (inactive)
Cc1sc(NC(=O)c2ccc(Br)s2)c(C(N)=O)c1C	> 42 µM (inactive)
Cc1cc(C)cc(N(CC(=O)Nc2cccc(C)n2)S(=O)(=O)c2c(C)noc2C)c1	> 42 µM (inactive)
CC1=C(C(N)=O)C(c2ccccn2)n2nc(SCc3ccccc3Cl)nc2N1 (configuration not stated)	> 42 µM (inactive)
Cc1ccc(/C(N)=N/OC(=O)/C=C/c2ccccc2)cc1	> 42 µM (inactive)
CCOc1ccc2nc(CN3CCN(Cc4ccccc4OCC)C(CCO)C3)ccc2c1 (configuration not stated)	> 42 µM (inactive)
CCOc1ccccc1C(=O)NCc1ccc2c(c1)OCO2	> 42 µM (inactive)
COc1ccc(-c2csc(NC(=O)C3CSC4(C)CCC(=O)N34)n2)cc1 (configuration not stated)	> 42 µM (inactive)
Cc1ccc2c(c1)N(CC(=O)NCCCN1CCN(C)CC1)C(=O)CO2	> 42 µM (inactive)
CCc1nnc(NC(=O)CSc2ccc(-c3ccc(-n4cccn4)cc3)nn2)s1	> 42 µM (inactive)
CC(C)NC(=O)CCCc1cn(C)c2ccccc12	> 42 µM (inactive)
CSc1nnc2c3cc(C)ccc3n(Cc3ccccc3)c2n1	> 42 µM (inactive)
COC(=O)c1ccc(CN2CCN(C3CCCCC3)C(CCO)C2)cc1 (configuration not stated)	> 42 µM (inactive)
O=C(O)CCC(NC(=O)c1ccc(Cl)cc1)C(=O)O (configuration not stated)	> 42 µM (inactive)
